Measured values from article PMC5845004, “Novel (p)ppGpp Binding and Metabolizing Proteins of Escherichia coli” (mBio, 2018).
Where “and” joins values, the source holds several entries; their conditions need not be identical. Equal values may be shown once. Entries after “also recorded” stand apart in the source; their conditions may differ. Read-outs that look alike come from different tables or passages of the source.

Assays:
Hpt = Hpt (Escherichia coli, UniProt P0A9M2); parameters: method as in ref 29-32 (Table S1 refs 1, 2); settings: ref 29-32 (Table S1 refs 1, 2); cited from earlier work
Gmk = system: Gmk; parameters: method as in Table S1 (3); settings: ref Table S1 (3); read-out: IC50, B. subtilis Gmk; cited from earlier work
EF-G = target: EF-G; parameters: method as in Table S1 (9); settings: ref Table S1 (9), cited from earlier work
RelA = system: RelA; parameters: method as in ref 36 (Table S1 ref 16); settings: ref 36 (Table S1 ref 16); cited from earlier work
[1] = target: SaRF3 (PrfC from S. aureus) (Staphylococcus aureus, UniProt A6QFN0); test: DRaCALA binding, SaRF3; settings: 12 µM protein
TrmE = TrmE (Escherichia coli, UniProt P25522); test: In vitro cleavage assay (TLC), TrmE; type: biochemical, E. coli; settings: 10 µM TrmE, buffer B, with 100 mM potassium where stated, 10 min
Description: The purified His6-MutT and His6-NudG proteins were tested for their relative levels of cleavage of ppGpp compared to those seen with their native substrates. For this, a 1 μM concentration of each protein and a 10 nM concentration of [α-^32P]ppGpp were used together with 100 μM concentrations of cold competitors [ppGpp, GTP, ATP, 8-oxo-(d)GTP, 2-hydroxyl-(d)ATP] or 50 mM EDTA in buffer B. The samples were incubated at 30°C for 10 min and for 1 h before the reactions were stopped by adding 50 mM EDTA. The cleavage products were resolved by TLC as described above. The purified His6-NadR and His6-TrmE proteins were tested for their cleavage of both GTP and ppGpp. For cleavage of GTP, 10 μM concentrations of His6-MBP, His6-TrmE, and 20 μM His6-NadR proteins were used with 2 nM [α-^32P]GTP and 100 μM cold GTP in buffer B. For cleavage of ppGpp, 10 μM concentrations of His6-TrmE, His6-MBP, and His6-NadR proteins were used with 10 nM [α-^32P]ppGpp in buffer B. Of note, for His6-TrmE, another reaction was also performed in buffer B supplemented with 100 mM KCl. The reactions were performed at RT for 10 min and were stopped by adding 17% formic acid. The cleavage products were resolved by TLC as described above.
(§1) A 20 μM concentration of each of purified proteins MutT, NudG, NadR, TrmE, and MBP (as a negative control) was incubated with 100 μM ppGpp in buffer B (containing 40 mM Tris [pH 7.5], 100 mM NaCl, and 10 mM MgCl2) for 20 min at room temperature. Samples were snap-frozen on dry ice and analyzed with UPLC-MS afterward. All samples and buffers were stored at −80°C, thawed on ice, and kept at 4°C during analysis. For the analysis, a UPLC-quadrupole time of flight (UPLC-qTOF) method (Waters) was used. […] The detection conditions were as follows: photodiode array detector (PDA), […] (evaluated at 260 nm); MS, ionization; electrospray ionization (ESI+), scan, 200 to 800 m/z with lock mass correction. […]

NadR = NadR (Escherichia coli, UniProt P27278); test: In vitro cleavage assay (TLC), NadR; type: biochemical, E. coli; settings: 10-20 µM NadR, buffer B with 100 mM NaCl, 10 min
Description: The purified His6-MutT and His6-NudG proteins were tested for their relative levels of cleavage of ppGpp compared to those seen with their native substrates. For this, a 1 μM concentration of each protein and a 10 nM concentration of [α-^32P]ppGpp were used together with 100 μM concentrations of cold competitors [ppGpp, GTP, ATP, 8-oxo-(d)GTP, 2-hydroxyl-(d)ATP] or 50 mM EDTA in buffer B. The samples were incubated at 30°C for 10 min and for 1 h before the reactions were stopped by adding 50 mM EDTA. The cleavage products were resolved by TLC as described above. The purified His6-NadR and His6-TrmE proteins were tested for their cleavage of both GTP and ppGpp. […]
as §1, with “afterward.” for “afterward. All samples and buffers were stored at −80°C, thawed on ice, and kept at 4°C during analysis. For the analysis, a UPLC-quadrupole time of flight (UPLC-qTOF) method (Waters) was used.”

Gpt = Gpt (Escherichia coli, UniProt P0A9M5); parameters: method as in ref 29-32 (Table S1 refs 1, 2); settings: ref 29-32 (Table S1 refs 1, 2); cited from earlier work
Gpt, sequence (P0A9M5 whole entry): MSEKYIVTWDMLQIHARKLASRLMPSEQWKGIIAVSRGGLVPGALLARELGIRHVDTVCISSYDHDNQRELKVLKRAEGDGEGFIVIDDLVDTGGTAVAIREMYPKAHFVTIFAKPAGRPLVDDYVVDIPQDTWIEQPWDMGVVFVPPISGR

SaRF3 (PrfC from S. aureus), sequence (A6QFN0 whole entry): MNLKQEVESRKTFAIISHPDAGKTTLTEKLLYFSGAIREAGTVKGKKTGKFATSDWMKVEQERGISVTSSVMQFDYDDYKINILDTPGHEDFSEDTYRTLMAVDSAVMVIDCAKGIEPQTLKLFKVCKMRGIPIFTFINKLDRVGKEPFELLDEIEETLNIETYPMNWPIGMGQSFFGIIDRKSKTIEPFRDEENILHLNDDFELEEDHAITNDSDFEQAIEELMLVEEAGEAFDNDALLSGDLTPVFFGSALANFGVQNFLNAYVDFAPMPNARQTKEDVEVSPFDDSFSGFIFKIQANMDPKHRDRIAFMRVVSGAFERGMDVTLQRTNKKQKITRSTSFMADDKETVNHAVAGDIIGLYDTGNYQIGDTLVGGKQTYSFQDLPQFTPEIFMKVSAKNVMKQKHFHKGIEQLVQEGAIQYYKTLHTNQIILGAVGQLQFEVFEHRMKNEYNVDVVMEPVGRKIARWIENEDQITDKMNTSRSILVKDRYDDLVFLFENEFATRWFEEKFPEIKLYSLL
Hpt, sequence (P0A9M2 whole entry): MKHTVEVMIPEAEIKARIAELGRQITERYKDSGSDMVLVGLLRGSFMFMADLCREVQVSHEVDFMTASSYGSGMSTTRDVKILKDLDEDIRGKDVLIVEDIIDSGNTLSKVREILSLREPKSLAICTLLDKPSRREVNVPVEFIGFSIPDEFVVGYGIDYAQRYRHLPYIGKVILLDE
TrmE, sequence (P25522 whole entry): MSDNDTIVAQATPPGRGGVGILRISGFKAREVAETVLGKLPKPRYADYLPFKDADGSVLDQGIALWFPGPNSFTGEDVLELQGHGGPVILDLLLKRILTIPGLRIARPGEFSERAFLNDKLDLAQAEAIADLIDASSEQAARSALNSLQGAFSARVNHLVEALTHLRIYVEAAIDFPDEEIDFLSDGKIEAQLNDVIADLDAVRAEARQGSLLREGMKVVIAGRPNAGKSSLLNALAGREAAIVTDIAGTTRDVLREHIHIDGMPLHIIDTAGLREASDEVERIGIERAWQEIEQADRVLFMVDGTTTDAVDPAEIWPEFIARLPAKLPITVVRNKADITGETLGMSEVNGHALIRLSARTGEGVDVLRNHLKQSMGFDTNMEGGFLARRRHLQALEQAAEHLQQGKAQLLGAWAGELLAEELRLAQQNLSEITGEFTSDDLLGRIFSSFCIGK
NadR, sequence (P27278 whole entry): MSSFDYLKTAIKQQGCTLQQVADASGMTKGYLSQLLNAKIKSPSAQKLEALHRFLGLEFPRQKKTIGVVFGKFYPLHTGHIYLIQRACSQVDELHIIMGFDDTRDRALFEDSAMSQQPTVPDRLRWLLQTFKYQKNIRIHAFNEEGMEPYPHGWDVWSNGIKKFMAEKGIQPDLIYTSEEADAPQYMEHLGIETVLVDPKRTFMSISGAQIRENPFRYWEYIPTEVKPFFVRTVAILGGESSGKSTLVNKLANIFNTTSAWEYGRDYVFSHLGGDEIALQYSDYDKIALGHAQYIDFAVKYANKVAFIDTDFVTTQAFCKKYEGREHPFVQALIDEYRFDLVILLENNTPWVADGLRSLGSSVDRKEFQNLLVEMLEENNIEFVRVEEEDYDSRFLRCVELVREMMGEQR

## Nc1nc2c(ncn2[C@@H]2O[C@H](COP(=O)(O)OP(=O)(O)O)[C@@H](OP(=O)(O)OP(=O)(O)O)[C@H]2O)c(=O)[nH]1 [ppGpp, guanosine tetraphosphate]
Hpt
  IC50: ~85 µM and 85 µM
Gmk
  IC50: 20 µM
EF-G; in the absence of EF-Ts
  Ki: 0.7 µM
EF-G; in the presence of EF-Ts
  Ki: 40 µM
RelA
  effect on RelA activity: allosterically stimulates
[1]
  binding to SaRF3: very weak binding (if any); also recorded: No binding of ppGpp by 12 µM of PrfC from S. aureus
TrmE
  cleavage by TrmE: converted most of ppGpp
NadR
  cleavage by NadR: converted most of ppGpp
Gpt
  IC50: ~85 µM and 85 µM
